# Assay results reported in patent US6727264B1 (Synaptic Pharmaceutical Corporation, priority 2001, dated 2004).
# Target: rat MCH-1 (Rattus norvegicus, UniProt P97639)
# Assay: Radioligand binding assay at cloned rat MCH1 receptor ([3H] Compound A)
# Set-up: host or cells: Peak rapid 293 (Peakr293) cells, transient calcium phosphate transfection, membranes
# Details: cloned rat MCH1 receptor; 0.08 nM [3H] Compound A; Peakr293 cell membranes; read-out: Ki (nM) rMCH1
# rat MCH-1, sequence (P97639 whole entry): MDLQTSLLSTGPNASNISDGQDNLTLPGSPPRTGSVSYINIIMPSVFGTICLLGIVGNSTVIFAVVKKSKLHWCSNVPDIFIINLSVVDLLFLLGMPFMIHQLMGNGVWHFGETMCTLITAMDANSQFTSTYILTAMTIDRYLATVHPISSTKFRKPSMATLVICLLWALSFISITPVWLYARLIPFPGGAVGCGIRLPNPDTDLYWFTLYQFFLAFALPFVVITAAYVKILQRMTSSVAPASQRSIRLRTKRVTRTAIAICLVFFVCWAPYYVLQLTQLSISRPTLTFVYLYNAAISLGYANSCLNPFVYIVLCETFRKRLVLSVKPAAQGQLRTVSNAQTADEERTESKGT
row,Ki [nM],SMILES
1,19.8,CC(=O)c1cccc(OC(CCCCCN2CCC(c3cccc(NC(=O)C(C)C)c3)CC2)c2ccccc2F)c1 (stereo not shown) [Example 888]
2,8.6,CC(C)C(=O)Nc1cccc(C2CCN(CCCCCC(Oc3ccccc3F)c3ccccc3F)CC2)c1 (stereo not shown) [Example 889]
3,11.1,CC(C)C(=O)Nc1cccc(C2CCN(CCCCCC(Oc3ccc(F)cc3)c3ccccc3F)CC2)c1 (stereo not shown) [Example 890]
4,6.5,COc1ccccc1OC(CCCCCN1CCC(c2cccc(NC(=O)C(C)C)c2)CC1)c1ccccc1F (stereo not shown) [Example 891]
5,17.3,COc1ccc(OC(CCCCCN2CCC(c3cccc(NC(=O)C(C)C)c3)CC2)c2ccccc2F)cc1 (stereo not shown) [Example 892]
6,23,CC(=O)c1ccc(OC(CCCCCN2CCC(c3cccc(NC(=O)C(C)C)c3)CC2)c2ccccc2F)cc1 (stereo not shown) [Example 893]
7,6.4,CCOc1ccccc1OC(CCCCCN1CCC(c2cccc(NC(=O)C(C)C)c2)CC1)c1ccccc1F (stereo not shown) [Example 895]
8,30.3,CC(C)C(=O)Nc1cccc(C2CCN(CCCCCC(Oc3ccc(Br)cc3)c3ccccc3)CC2)c1 (stereo not shown) [Example 896]
9,6.4,CC(C)C(=O)Nc1cccc(C2CCN(CCCCCC(Oc3ccc(F)cc3)c3ccc(F)cc3)CC2)c1 (stereo not shown) [Example 897]
10,33.7,COc1ccc(OC(CCCCCN2CCC(c3cccc(NC(=O)C(C)C)c3)CC2)c2ccccc2)cc1 (stereo not shown) [Example 898]
11,18,CC(C)C(=O)Nc1cccc(C2CCN(CCCCCC(Oc3ccc(Cl)cc3)c3ccc(Cl)cc3)CC2)c1 (stereo not shown) [Example 899]
12,11.2,CC(C)C(=O)Nc1cccc(C2CCN(CCCCCC(Oc3ccc(Br)cc3)c3ccc(F)cc3)CC2)c1 (stereo not shown) [Example 900]
13,8.2,CC(C)C(=O)Nc1cccc(C2CCN(CCCCCC(Oc3ccc(Cl)cc3)c3ccc(F)cc3)CC2)c1 (stereo not shown) [Example 901]
14,11,CC(C)C(=O)Nc1cccc(C2CCN(CCCCCC(Oc3ccc(F)cc3)c3ccc(Cl)cc3)CC2)c1 (stereo not shown) [Example 902]
15,14.2,CC(C)C(=O)Nc1cccc(C2CCN(CCCCCC(Oc3ccc(Cl)cc3)c3ccccc3)CC2)c1 (stereo not shown) [Example 904]
16,5.9,CC(C)C(=O)Nc1cccc(C2CCN(CCCCCC(Oc3ccc(Br)cc3)c3ccc(Cl)cc3)CC2)c1 (stereo not shown) [Example 905]
17,5.7,COc1ccc(OC(CCCCCN2CCC(c3cccc(NC(=O)C(C)C)c3)CC2)c2ccc(Cl)cc2)cc1 (stereo not shown) [Example 906]
18,3.1,COc1ccc(OC(CCCCCN2CCC(c3cccc(NC(=O)C(C)C)c3)CC2)c2ccc(F)cc2)cc1 (stereo not shown) [Example 907]
19,3.7,CC(=O)c1cccc(OC(CCCCCN2CCC(c3cccc(NC(=O)C(C)C)c3)CC2)c2ccc(F)cc2)c1 (stereo not shown) [Example 908]
20,10,CC(C)C(=O)Nc1cccc(C2CCN(CCCCCC(Oc3ccc(F)cc3)c3ccccc3)CC2)c1 (stereo not shown) [Example 909]
21,10.1,CC(=O)c1ccccc1OC(CCCCCN1CCC(c2cccc(NC(=O)C(C)C)c2)CC1)c1ccccc1F (stereo not shown) [Example 910]

row,Ki [nM],SMILES
1,7.6,CC(C)C(=O)Nc1cccc(C2CCN(CCCCCC(Oc3cc(C(F)(F)F)ccc3F)c3ccc(F)cc3)CC2)c1 (stereo not shown) [Example 911]
2,5.7,CC(=O)c1cccc(OC(CCCCCN2CCC(c3cccc(NC(=O)C(C)C)c3)CC2)c2ccc(Cl)cc2)c1 (stereo not shown) [Example 912]
3,17.3,CC(C)C(=O)Nc1cccc(C2CCN(CCCCCC(Oc3cc(C(F)(F)F)ccc3F)c3ccc(Cl)cc3)CC2)c1 (stereo not shown) [Example 914]
4,22.6,CC(C)C(=O)Nc1cccc(C2CCN(CCCCCC(Oc3cc(C(F)(F)F)ccc3F)c3cccc(F)c3)CC2)c1 (stereo not shown) [Example 915]
5,20.2,CC(C)C(=O)Nc1cccc(C2CCN(CCCCCC(Oc3cc(C(F)(F)F)ccc3F)c3ccccc3)CC2)c1 (stereo not shown) [Example 916]
6,29.3,COc1ccc(OC(CCCCN2CCC(c3cccc(NC(=O)C(C)C)c3)CC2)c2ccc(F)cc2)cc1 (stereo not shown) [Example 918]
7,14,CC(C)C(=O)Nc1cccc(C2CCN(CCCCC(Oc3ccc(Br)cc3)c3ccc(F)cc3)CC2)c1 (stereo not shown) [Example 919]
8,6.9,CC(C)C(=O)Nc1cccc(C2CCN(CCCCC(Oc3ccc(Cl)cc3)c3ccc(Cl)cc3)CC2)c1 (stereo not shown) [Example 920]
9,6.8,CC(C)C(=O)Nc1cccc(C2CCN(CCCCC(Oc3ccc(Cl)cc3)c3ccccc3)CC2)c1 (stereo not shown) [Example 921]
10,25,CC(=O)c1cccc(OC(CCCCN2CCC(c3cccc(NC(=O)C(C)C)c3)CC2)c2ccc(F)cc2)c1 (stereo not shown) [Example 922]
11,1.3,CC(C)C(=O)Nc1cccc(C2CCN(CCCCC(Oc3ccc(F)cc3)c3ccc(Cl)cc3)CC2)c1 (stereo not shown) [Example 923]
12,13.1,CC(C)C(=O)Nc1cccc(C2CCN(CCCCC(Oc3ccc(Br)cc3)c3ccccc3)CC2)c1 (stereo not shown) [Example 924]
13,13.4,COc1ccc(OC(CCCCN2CCC(c3cccc(NC(=O)C(C)C)c3)CC2)c2ccc(Cl)cc2)cc1 (stereo not shown) [Example 925]
14,1.4,CC(C)C(=O)Nc1cccc(C2CCN(CCCCC(Oc3ccc(F)cc3)c3ccc(F)cc3)CC2)c1 (stereo not shown) [Example 926]
15,60.7,CC(=O)c1cccc(OC(CCCCN2CCC(c3cccc(NC(=O)C(C)C)c3)CC2)c2ccccc2)c1 (stereo not shown) [Example 927]
16,14.9,COc1ccc(OC(CCCCN2CCC(c3cccc(NC(=O)C(C)C)c3)CC2)c2ccccc2)cc1 (stereo not shown) [Example 928]
17,29.9,CC(C)C(=O)Nc1cccc(C2CCN(CCCCC(Oc3cc(C(F)(F)F)ccc3F)c3ccc(C(F)(F)F)cc3)CC2)c1 (stereo not shown) [Example 929]
18,14.6,CC(C)C(=O)Nc1cccc(C2CCN(CCCCC(Oc3cc(C(F)(F)F)ccc3F)c3cccc(Cl)c3)CC2)c1 (stereo not shown) [Example 930]
19,9.4,CC(C)C(=O)Nc1cccc(C2CCN(CCCCC(Oc3cc(C(F)(F)F)ccc3F)c3cccc(F)c3)CC2)c1 (stereo not shown) [Example 932]
20,10.9,CC(=O)c1cccc(OC(CCCCN2CCC(c3cccc(NC(=O)C(C)C)c3)CC2)c2ccc(Cl)cc2)c1 (stereo not shown) [Example 933]

# Further lines, the compound ahead of its results:
row,SMILES,Ki [nM]
1,CC(C)C(=O)Nc1cccc(C2CCN(Cc3ccc4c(ccn4-c4ccccc4F)c3)CC2)c1 [Example 852],14.5
2,CC(C)C(=O)Nc1cccc(C2CCN(Cc3ccc4c(ccn4-c4cccc5ccccc45)c3)CC2)c1 [Example 853],48
3,CC(C)C(=O)Nc1cccc(C2CCN(Cc3ccc4c(ccn4-c4cccc(Cl)c4Cl)c3)CC2)c1 [Example 854],13.8
4,CC(C)C(=O)Nc1cccc(C2CCN(Cc3cccc4ccn(-c5cccc(Cl)c5Cl)c34)CC2)c1 [Example 855],256
5,COc1cccc(-n2ccc3c(CN4CCC(c5cccc(NC(=O)C(C)C)c5)CC4)cccc32)c1 [Example 856],123
6,CC(C)C(=O)Nc1cccc(C2CCN(Cc3cccc4c3ccn4-c3cccc(Cl)c3Cl)CC2)c1 [Example 857],89.8
7,CC(C)C(=O)Nc1cccc(C2CCN(Cc3cccc4c3ccn4-c3cccc(Cl)c3)CC2)c1 [Example 858],44.9
8,Cc1cccc(-n2ccc3c(CN4CCC(c5cccc(NC(=O)C(C)C)c5)CC4)cccc32)c1 [Example 859],321
9,COc1cccc(-n2ccc3cccc(CN4CCC(c5cccc(NC(=O)C(C)C)c5)CC4)c32)c1 [Example 860],40.5
10,CC(C)C(=O)Nc1cccc(C2CCN(Cc3cccc4c3ccn4-c3cccc(C(F)(F)F)c3)CC2)c1 [Example 861],94.1
11,Cc1ccc(-n2ccc3c(CN4CCC(c5cccc(NC(=O)C(C)C)c5)CC4)cccc32)cc1C [Example 862],438
12,CC(C)C(=O)Nc1cccc(C2CCN(Cc3cccc4c3ccn4-c3cc(Cl)cc(Cl)c3)CC2)c1 [Example 863],269
13,CC(C)C(=O)Nc1cccc(C2CCN(Cc3cccc4c3ccn4-c3ccc(Cl)c(Cl)c3)CC2)c1 [Example 864],292
14,CC(C)C(=O)Nc1cccc(C2CCN(Cc3cccc4c3ccn4-c3ccc(F)cc3Cl)CC2)c1 [Example 865],94.6
15,CC(C)C(=O)Nc1cccc(C2CCN(Cc3cccc4c3ccn4-c3ccc(F)cc3F)CC2)c1 [Example 866],169
16,CC(C)C(=O)Nc1cccc(C2CCN(Cc3cccc4ccn(-c5cccnc5)c34)CC2)c1 [Example 867],892

row,SMILES,Ki [nM]
1,CC(C)C(=O)Nc1cccc(C2CCN(Cc3ccc4cc[nH]c4c3)CC2)c1 [Example 868],403
2,CC(C)C(=O)Nc1cccc(C2CCN(Cc3cccc4c3ccn4-c3ccncc3)CC2)c1 [Example 869],431
3,CC(C)C(=O)Nc1cccc(C2CCN(Cc3cccc4c3ccn4-c3ccccn3)CC2)c1 [Example 870],167
4,CC(C)C(=O)Nc1cccc(C2CCN(Cc3cccc4c3ccn4-c3ccccc3F)CC2)c1 [Example 871],252
5,CC(C)C(=O)Nc1cccc(C2CCN(Cc3cccc4c3ccn4-c3ccc(Cl)cc3)CC2)c1 [Example 872],306
6,CC(C)C(=O)Nc1cccc(C2CCN(Cc3cccc4c3ccn4-c3cccnc3)CC2)c1 [Example 873],345
7,Cc1cccc(-n2ccc3c(CN4CCC(c5cccc(NC(=O)C(C)C)c5)CC4)cccc32)c1C [Example 874],247
8,CC(C)C(=O)Nc1cccc(C2CCN(Cc3cccc4c3ccn4-c3cccc(F)c3)CC2)c1 [Example 875],130
9,CC(C)C(=O)Nc1cccc(C2CCN(Cc3cccc4c3ccn4-c3ccccc3C(F)(F)F)CC2)c1 [Example 876],758
10,CC(C)C(=O)Nc1cccc(C2CCN(Cc3cccc4c3ccn4-c3ccccc3Cl)CC2)c1 [Example 877],245
11,Cc1cccc(-n2ccc3cccc(CN4CCC(c5cccc(NC(=O)C(C)C)c5)CC4)c32)c1C [Example 878],169
12,COc1ccc(OC(CCCCCN2CCC(c3cccc(NC(=O)C(C)C)c3)CC2)c2ccccc2F)cc1OC (stereo not shown) [Example 894],41.7
13,CC(=O)c1cccc(OC(CCCCCN2CCC(c3cccc(NC(=O)C(C)C)c3)CC2)c2ccccc2)c1 (stereo not shown) [Example 903],12.2
14,CC(C)C(=O)Nc1cccc(C2CCN(CCCCCC(Oc3cc(C(F)(F)F)ccc3F)c3ccccc3F)CC2)c1 (stereo not shown) [Example 913],12.9
15,CC(C)C(=O)Nc1cccc(C2CCN(CCCCCCC(Oc3cc(C(F)(F)F)ccc3F)c3ccccc3F)CC2)c1 (stereo not shown) [Example 917],78
16,CC(C)C(=O)Nc1cccc(C2CCN(CCCCC(Oc3cc(C(F)(F)F)ccc3F)c3ccccc3F)CC2)c1 (stereo not shown) [Example 931],9.6
